Assay results reported in patent US20200060276A1, “THIAZOLE COMPOUND AND HERBICIDE” (OAT Agrio Co., Ltd., priority 2017, published 2020).

Columns and labels:
Assay type in all cases: in vivo
[1] = test system: Echinochloa crus-galli (L.) P. Beauv. var. formosensis Ohwi; test: Test for Herbicidal Effect in Flooding Treatment (#1), ECHDG; conditions: flooding treatment at seeding, dose 2 kg/ha, visual observation on day 21
How it was run: (§1)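 Visual scores from 0 (<10% inhibition) to 5 (≥90% or complete withering) were taken 21 days after treatment of glasshouse-grown plants. Seeds were sown in soil flooded for 24 h beforehand, and compound was applied dropwise onto the surface at 2 kg/ha as an acetone solution diluted in water with Tween 80.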

Monochoria vaginalis = test: Test for Herbicidal Effect in Flooding Treatment (#1), MONVA; conditions: flooding treatment at seeding, dose 2 kg/ha, visual observation on day 21
How it was run: as §1

[2] = test system: Echinochloa crus-galli (L.) P. Beauv. var. formosensis Ohwi; test: Test for Herbicidal Effect in Flooding Treatment (#2), ECHDG at 2-2.5 leaf stage; conditions: flooding treatment at 2-2.5 leaf stage, dose 0.2 kg/ha, visual observation on day 21
How it was run: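 Scoring is a visual 0–5 scale of growth inhibition (0 below 10%, 5 at 90% or more or full withering), taken 21 days after treatment in a glasshouse. Dose was 0.2 kg/ha, applied as acetone/Tween 80 aqueous solution onto flooded soil once seedlings reached the 2–2.5 leaf stage.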

Scirpus juncoides = test: Test for Herbicidal Effect in Flooding Treatment (#1), SCIJU; conditions: flooding treatment at seeding, dose 2 kg/ha, visual observation on day 21
How it was run: as §1

Cyperus microiria = test: Test for Herbicidal Effect in Flooding Treatment (#1), CYMIC; conditions: flooding treatment at seeding, dose 2 kg/ha, visual observation on day 21
How it was run: as §1

| Structure (SMILES) | ECHDG #1 herbicidal effect (growth inhibition grade) [1] | MONVA #1 herbicidal effect (growth inhibition grade) (Monochoria vaginalis) | ECHDG (2-2.5L) #2 herbicidal effect (growth inhibition grade) [2] | SCIJU #1 herbicidal effect (growth inhibition grade) (Scirpus juncoides) | CYMIC #1 herbicidal effect (growth inhibition grade) (Cyperus microiria) |
| --- | --- | --- | --- | --- | --- |
| CCOc1c(Cl)cc(F)cc1CS(=O)(=O)c1ncc(Cl)s1 [Compound 1C-22] | 5 (Growth inhibition effect is equal to or greater than 90%, or complete withering is achieved) | 5 (Growth inhibition effect is equal to or greater than 90%, or complete withering is achieved) | 5 (Growth inhibition effect is equal to or greater than 90%, or complete withering is achieved) | 5 (Growth inhibition effect is equal to or greater than 90%, or complete withering is achieved) | 5 (Growth inhibition effect is equal to or greater than 90%, or complete withering is achieved) |
| CCOc1c(Cl)cc(Cl)cc1CS(=O)(=O)c1ncc(Cl)s1 [Compound 1C-23] | 5 (Growth inhibition effect is equal to or greater than 90%, or complete withering is achieved) | 5 (Growth inhibition effect is equal to or greater than 90%, or complete withering is achieved) | 3 (Growth inhibition effect equal to or greater than 50%, and less than 70%) | 5 (Growth inhibition effect is equal to or greater than 90%, or complete withering is achieved) | 5 (Growth inhibition effect is equal to or greater than 90%, or complete withering is achieved) |
| CCOc1c(C)cc(F)cc1CS(=O)(=O)c1ncc(Cl)s1 [Compound 1C-25] | 5 (Growth inhibition effect is equal to or greater than 90%, or complete withering is achieved) | 5 (Growth inhibition effect is equal to or greater than 90%, or complete withering is achieved) | 5 (Growth inhibition effect is equal to or greater than 90%, or complete withering is achieved) | 5 (Growth inhibition effect is equal to or greater than 90%, or complete withering is achieved) | 5 (Growth inhibition effect is equal to or greater than 90%, or complete withering is achieved) |
| CCOc1c(C)cc(Cl)cc1CS(=O)(=O)c1ncc(Cl)s1 [Compound 1C-26] | 5 (Growth inhibition effect is equal to or greater than 90%, or complete withering is achieved) | 5 (Growth inhibition effect is equal to or greater than 90%, or complete withering is achieved) | 5 (Growth inhibition effect is equal to or greater than 90%, or complete withering is achieved) | 5 (Growth inhibition effect is equal to or greater than 90%, or complete withering is achieved) | 5 (Growth inhibition effect is equal to or greater than 90%, or complete withering is achieved) |
| CCOc1c(F)ccc(F)c1CS(=O)(=O)c1ncc(Cl)s1 [Compound 1C-27] | 5 (Growth inhibition effect is equal to or greater than 90%, or complete withering is achieved) | 5 (Growth inhibition effect is equal to or greater than 90%, or complete withering is achieved) | 5 (Growth inhibition effect is equal to or greater than 90%, or complete withering is achieved) | 5 (Growth inhibition effect is equal to or greater than 90%, or complete withering is achieved) | 5 (Growth inhibition effect is equal to or greater than 90%, or complete withering is achieved) |
| CCOc1c(C)ccc(C)c1CS(=O)(=O)c1ncc(Cl)s1 [Compound 1C-28] | 5 (Growth inhibition effect is equal to or greater than 90%, or complete withering is achieved) | 5 (Growth inhibition effect is equal to or greater than 90%, or complete withering is achieved) | 5 (Growth inhibition effect is equal to or greater than 90%, or complete withering is achieved) | 5 (Growth inhibition effect is equal to or greater than 90%, or complete withering is achieved) | 5 (Growth inhibition effect is equal to or greater than 90%, or complete withering is achieved) |
| CCOc1cc(C)c(Cl)cc1CS(=O)(=O)c1ncc(Cl)s1 [Compound 1C-30] | 5 (Growth inhibition effect is equal to or greater than 90%, or complete withering is achieved) | 5 (Growth inhibition effect is equal to or greater than 90%, or complete withering is achieved) | 5 (Growth inhibition effect is equal to or greater than 90%, or complete withering is achieved) | 5 (Growth inhibition effect is equal to or greater than 90%, or complete withering is achieved) | 5 (Growth inhibition effect is equal to or greater than 90%, or complete withering is achieved) |
| CCOc1cc(F)cc(F)c1CS(=O)(=O)c1ncc(Cl)s1 [Compound 1C-31] | 5 (Growth inhibition effect is equal to or greater than 90%, or complete withering is achieved) | 5 (Growth inhibition effect is equal to or greater than 90%, or complete withering is achieved) | 5 (Growth inhibition effect is equal to or greater than 90%, or complete withering is achieved) | 5 (Growth inhibition effect is equal to or greater than 90%, or complete withering is achieved) | 5 (Growth inhibition effect is equal to or greater than 90%, or complete withering is achieved) |
| CCOc1cc(C)c(Cl)c(C)c1CS(=O)(=O)c1ncc(Cl)s1 [Compound 1C-35] | 5 (Growth inhibition effect is equal to or greater than 90%, or complete withering is achieved) | 5 (Growth inhibition effect is equal to or greater than 90%, or complete withering is achieved) | 5 (Growth inhibition effect is equal to or greater than 90%, or complete withering is achieved) | 5 (Growth inhibition effect is equal to or greater than 90%, or complete withering is achieved) | 5 (Growth inhibition effect is equal to or greater than 90%, or complete withering is achieved) |
| CC(C)Oc1ccccc1CS(=O)(=O)c1ncc(Cl)s1 [Compound 1C-36] | 5 (Growth inhibition effect is equal to or greater than 90%, or complete withering is achieved) | 5 (Growth inhibition effect is equal to or greater than 90%, or complete withering is achieved) | 4 (Growth inhibition effect is equal to or greater than 70%, and less than 90%) | 5 (Growth inhibition effect is equal to or greater than 90%, or complete withering is achieved) | 5 (Growth inhibition effect is equal to or greater than 90%, or complete withering is achieved) |
| O=S(=O)(Cc1cc(Cl)ccc1OC(F)F)c1ncc(Cl)s1 [Compound 1C-39] | 5 (Growth inhibition effect is equal to or greater than 90%, or complete withering is achieved) | 5 (Growth inhibition effect is equal to or greater than 90%, or complete withering is achieved) | 5 (Growth inhibition effect is equal to or greater than 90%, or complete withering is achieved) | 5 (Growth inhibition effect is equal to or greater than 90%, or complete withering is achieved) | 5 (Growth inhibition effect is equal to or greater than 90%, or complete withering is achieved) |
| O=S(=O)(Cc1cc(Br)ccc1OC(F)F)c1ncc(Cl)s1 [Compound 1C-40] | 5 (Growth inhibition effect is equal to or greater than 90%, or complete withering is achieved) | 5 (Growth inhibition effect is equal to or greater than 90%, or complete withering is achieved) | 5 (Growth inhibition effect is equal to or greater than 90%, or complete withering is achieved) | 5 (Growth inhibition effect is equal to or greater than 90%, or complete withering is achieved) | 5 (Growth inhibition effect is equal to or greater than 90%, or complete withering is achieved) |
